biological target: T1, Endothelial lipase (Homo sapiens, UniProt Q9Y5X9); experiment: EL inhibition assay; type: biochemical; settings: values marked * are IC50 values of a mixture of the indicated regioisomers; 37° C., 60 minutes, Bodipy phospholipid substrate
T1 construct: made in house; host or cells: CHO, HEK293 (recombinant cell lines; concentrated conditioned medium used as enzyme solution)
T1 sequence (Q9Y5X9 21-500): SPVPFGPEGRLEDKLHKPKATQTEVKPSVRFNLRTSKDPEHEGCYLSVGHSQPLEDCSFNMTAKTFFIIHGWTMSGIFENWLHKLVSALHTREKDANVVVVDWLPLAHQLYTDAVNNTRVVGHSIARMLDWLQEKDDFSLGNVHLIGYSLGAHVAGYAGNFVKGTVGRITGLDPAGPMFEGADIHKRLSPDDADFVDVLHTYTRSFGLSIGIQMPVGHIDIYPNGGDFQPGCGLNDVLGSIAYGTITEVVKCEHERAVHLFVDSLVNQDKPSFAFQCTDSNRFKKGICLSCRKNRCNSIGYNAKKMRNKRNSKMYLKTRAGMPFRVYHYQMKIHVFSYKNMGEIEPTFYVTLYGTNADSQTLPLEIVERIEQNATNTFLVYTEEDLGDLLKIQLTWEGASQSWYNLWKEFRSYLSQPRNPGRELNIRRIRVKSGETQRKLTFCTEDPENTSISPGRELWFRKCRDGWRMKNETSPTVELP
Protocol: The activity of the compounds of the invention of the formula I was tested in the following enzyme assay system: […]
Endothelial lipase is released as secretory protein in high concentration into cell culture medium (conditioned medium) by recombinant cell lines (CHO, HEK293). This is employed as enzyme solution after concentration.
The phospholipase-specific substrate 1,2-bis(4,4-difluoro-5,7-dimethyl-4-bora-3a,4a-diaza-s-indacene-3-undecanoyl)-sn-glycero-3-phosphocholine, (manufacturer Molecular Probes) is used to characterize the enzymatic activity of endothelial lipase and the effect of inhibitors. Hydrolysis of the A1 ester linkage of this phospholipid by the enzyme liberates the fluorescent dye Bodipy which can be detected after separation by thin-layer chromatography on an HPTLC plate (silica gel 60, Merck) or directly in the reaction vessel by measuring the fluorescence.
The substrate solution is prepared by taking up 100 μg of 1,2-bis(4,4-difluoro-5,7-dimethyl-4-bora-3a,4a-diaza-s-indacene-3-undecanoyl)-sn-glycero-3-phospho-choline (manufacturer Molecular Probes), 2.4 mg of tripalmitin (Sigma) and 7.9 mg of DOP—choline (1,2-dioleoyl-sn-glycero-3-phosphocholine) in 393 μl of chloroform and then transferring 157 μl into a fresh reaction vessel. After evaporation of the solvent, the lipid mixture is dissolved in 4 ml of 200 mM TRIS-HCl, 150 mM sodium chloride, pH=7.4, by sonication twice. The subsequent enzymic reaction takes place at 37° C. for 60 minutes. For this purpose, 45 μl of the substrate solution are incubated with 1 μl of inhibitor of appropriate concentration (dissolved in DMSO, pure DMSO solution is used as control) and 5 μl of enzyme solution (conditioned medium). Then 3 μl of the assay mixture are loaded onto an HPTLC plate (silica gel 60, Merck), and the liberated fluorescent dye is separated for detection with an eluent (diethyl ether:petroleum benzene:acetic acid [78:22:1]). After evaporation of the eluent, the plate is read in a fluorescence scanner. An increased release of the fluorescent dye in the uninhibited reaction is to be observed as a measure of the enzymic activity.
The enzymatic activity is reduced as a function of the inhibitor concentration used, and the inhibitor concentration at which a half-maximum enzymic activity is observed is called IC50.

Row | Compound | IC50
1 | N#Cc1ccc2sc(CNC(=O)n3nnc4ccccc43)cc2c1 [Example 10] | 510 nM
2 | O=C(NCc1ccc(-c2cccs2)s1)n1nnc2ccccc21 [Example 15] | 520 nM
3 | C[C@H](NC(=O)n1nnc2ccccc21)c1ccccc1 [Example 36] | 710 nM

Now those with a lower IC50, led by results:

Row | IC50 | Compound
4 | 440 nM | O=C(NCc1ccc(Cl)cc1)n1nnc2ccccc21 [Example 28]
5 | 80 nM | Cc1ccsc1CNC(=O)n1nnc2ccccc21 [Example 9]
6 | 31 nM | C[C@@H](NC(=O)n1nnc2ccccc21)c1ccccc1 [Example 23]
7 | 20 nM | Cc1cccc(CNC(=O)n2nnc3ccccc32)c1 [Example 1]

From patent US7897625B2, “Carbamoylbenzotriazole derivatives as inhibitors of lipases and phospholipases” (Sanofi-Aventis, priority 2005, dated 2011)
